Measurements: patent US5488134A, “Preparation of compounds of lignan series” (Shionogi & Co., Ltd., priority 1993, dated 1996)

Tests used:
[1] = Cholesterol-lowering Action in cholesterol-fed mice; assay type: in vivo; conditions: male ICR mice, feed with 1% cholesterol and 0.5% sodium cholate, 0.12% test compound in feed, seven days; for (VLDL + LDL) Cholesterol Lowering Rate: total minus HDL cholesterol; for Total Cholesterol Lowering Rate: serum
Procedure: Cholesterol-lowering Action
Male ICR mice (body weight: 30-40 grams) were freely fed for seven days with a feed containing 1% of cholesterol and 0.5% of sodium cholate to which 0.12% of the test compound was added (no such a compound was added for the control group), then blood was collected from the mice and the total cholesterol in serum was measured by the method of Allain described in Clinical Chemistry, volume 20, page 470 (1974).
Total amount of VLDL cholesterol and LDL cholesterol was calculated by subtracting the amount of HDL cholesterol from the amount of total cholesterol. The amount of the HDL cholesterol was measured by the method of Ash and Hentschel described in Clinical Chemistry, volume 24, page 2180 (1978).
Cholesterol lowering action of the test compound was evaluated from the cholesterol lowering rate calculated from the following expressions. [formula]

LDL = assay: Inhibitory Action against Oxidative Modification of LDL (Cu2+-induced, TBA reactive substances); assay type: biochemical, New Zealand White rabbits; conditions: rabbit LDL 0.2 mg protein/ml, cupric sulfate 0.5 μM Cu2+, 37° C., 24 hours, read-out: LDL-Oxidation Inhibiting IC50
Procedure: Inhibitory Action against Oxidative Modification of LDL
Experiments were conducted as follows according to the method of Kita, et al. described in proceedings of the National Academy of Sciences, USA, volume 84, pages 5928 (1987).
First, LDL was separated from the blood of New Zealand White rabbits fed with a feed containing 0.5% of cholesterol for three weeks and dissolved in phosphate-buffered physiological saline (final LDL concentration: 0.2 mg protein/ml). To this was added an ethanolic solution of each test compound, then cupric sulfate was added thereto (final Cu^2+ concentration: 0.5 μM) and the mixture was incubated at 37° C. for 24 hours.
The amount of lipid peroxides in each of the incubated solutions was measured as thiobarbituric acid reacting substances (TBA reactive substances) and, from the regression line of the inhibitory rate for oxidative modification of LDL and the concentration of the compound, the 50% inhibiting concentration (IC50) was calculated. Quantitative determination of the TBA reactive substances was conducted by measuring the TBA reactive substances in the supernatant (prepared by removing protein from the incubated solution) by means of TBA method.

| SMILES | (VLDL + LDL) Cholesterol Lowering Rate [1] | Total Cholesterol Lowering Rate [1] | IC50 (LDL) |
| --- | --- | --- | --- |
| COC(=O)c1c(C(=O)c2ccc(C(F)(F)F)cc2)c(O)c2cc(OC)c(OC)c(OC)c2c1-c1ccc(OC)c(OC)c1 [Example 1, 1-(3,4-Dimethoxyphenyl)-4-hydroxy-2-(methoxycarbonyl)-3-[4-(trifluoromethyl)benzoyl]-6,7,8-trimethoxynaphthalene] | 61% | 22% | 1520 nM |
| COC(=O)c1c(C(=O)c2ccc(Cl)cc2)c(O)c2cc(OC)c(OC)c(OC)c2c1-c1ccc(OC)c(OC)c1 [Example 2, 3-(4-Chlorobenzoyl)-1-(3,4-dimethoxyphenyl)-4-hydroxy-2-(methoxycarbonyl)-6,7,8-trimethoxynaphthalene] | 74% | 28% | 1420 nM |
